Source: patent US20180010188A1, “METHOD FOR DETECTING NONSENSE-MEDIATED RNA DECAY” (The Regents of the University of California, priority 2016, published 2018)

System: polysome integrity
Assay: Polysome fractionation by sucrose density gradient centrifugation
Type: cell-based, mouse
Details: 5 hours, DMSO 30
Method: In addition to altering gene expression via the IRE1-Xbp1s signaling pathway to retain homeostasis, ER stress also reduces global protein synthesis (Harding et al., 1999. Nature 397: 271-274; Ron D. 2002. J Clin Invest 110: 1383-1388; Wek et al., 2006. Biochem Soc Trans 34: 7-11). The dose of thapsigargin inhibiting NMD was as low as 20 nM, whereas according to the literature, thapsigargin has been widely used at 1 μM to induce ER stress. To assess whether the NMD-inhibiting thapsigargin doses also repressed translation, we performed ribosome fractionation using sucrose density gradient centrifugation and examined polysome integrity as an indicator of translational activity. […] The heavier polysomes (>4 ribosomes) were affected the most and further collapsed with increasing doses of thapsigargin. Polysome disintegration was also accompanied by increasing optical density values of 80S. To quantify the dose effect of thapsigargin, we drew a line from the peak of the disome to the peak of the polysome consisting of roughly 8 ribosomes based on relative elution time. We measured the angle of this line relative to a horizontal line through the disome peak and used the angle as an indicator of polysome integrity. This angle was 30 for DMSO-treated cells and decreased to 0, −18, −20, −30 and −40 in response to increasing thapsigargin concentrations of 0.01, 0.02, 0.05, 0.1 and 0.2 μM, respectively.
For polysome fractionation, 1.5×10^7 N2a cells in 20 ml N2a complete media were plated on 150 mm petri dishes overnight and treated with varying concentrations of thapsigargin the next day. Cycloheximide (Fisher Scientific, cat. no. 50490338) was added at a concentration of 100 μg/ml, and the cells were incubated for 10 min at 37° C. before lysate collection. The cells were washed twice with 10 ml cold 1×PBS containing 100 μg/ml cycloheximide then collected in 4 ml of the same cold PBS solution. The cells were lysed with 0.5 ml lysis buffer (20 mM Tris pH 7.5, 100 mM KCl, 5 mM MgCl2, 2 mM DTT, 100 μg/ml cycloheximide, 1% Triton X-100, 50 u/ml RNaseout and 1×EDTA-free protease inhibitor cocktail). Roughly 400 μl ([…]) of lysate was loaded onto premade sucrose gradients (60% to 15%) and balanced (within 0.5 mg) before ultracentrifugation at 4° C. and 237,000 g (50,000 rpm for a SW55 Ti rotor) for 1.5 hours. Products were carefully removed from the ultracentrifuge and fractionated with the apparatus consisting of the gradient fractionator (Brandel SYN-202), the ISCO absorbance detector (ISCO # UA-6, Lincoln, Nebr.) and the fraction collector (R1 Fraction Collector) at 2.0 sensitivity and 150 cm/h chart speed to record absorbance data and collect fractionations.

Compound: C/C=C(/C)C(=O)O[C@H]1C(C)=C2[C@H]([C@@H]1OC(=O)CCCCCCC)[C@@](C)(OC(C)=O)C[C@H](OC(=O)CCC)[C@@]1(O)[C@H]2OC(=O)[C@@]1(C)O [thapsigargin]
- angle of disome-to-8-ribosome peak line (polysome integrity) (0.01 μM): 0
- angle of disome-to-8-ribosome peak line (polysome integrity) (0.02 μM): −18
- angle of disome-to-8-ribosome peak line (polysome integrity) (0.05 μM): −20
- angle of disome-to-8-ribosome peak line (polysome integrity) (0.1 μM): −30
- angle of disome-to-8-ribosome peak line (polysome integrity) (0.2 μM): −40
